In paper PMC10416764, “Crystal structure of Prp16 in complex with ADP” (Acta Crystallographica. Section F, Structural Biology …, 2023):

Biological target: T1, ctPrp16 (302-920) (Thermochaetoides thermophila, UniProt G0S0F9)
T1 construct: gene CTHT_0009880; residues 302-920 (RecA1, RecA2, WH, HB, OB-fold); N- and C-terminally truncated; codon-optimized gene, E. coli Rosetta2 (DE3), pGEX-6P-3, GST tag cleaved by PreScission; one molecule per asymmetric unit
T1 sequence (G0S0F9 301-920 limits assumed): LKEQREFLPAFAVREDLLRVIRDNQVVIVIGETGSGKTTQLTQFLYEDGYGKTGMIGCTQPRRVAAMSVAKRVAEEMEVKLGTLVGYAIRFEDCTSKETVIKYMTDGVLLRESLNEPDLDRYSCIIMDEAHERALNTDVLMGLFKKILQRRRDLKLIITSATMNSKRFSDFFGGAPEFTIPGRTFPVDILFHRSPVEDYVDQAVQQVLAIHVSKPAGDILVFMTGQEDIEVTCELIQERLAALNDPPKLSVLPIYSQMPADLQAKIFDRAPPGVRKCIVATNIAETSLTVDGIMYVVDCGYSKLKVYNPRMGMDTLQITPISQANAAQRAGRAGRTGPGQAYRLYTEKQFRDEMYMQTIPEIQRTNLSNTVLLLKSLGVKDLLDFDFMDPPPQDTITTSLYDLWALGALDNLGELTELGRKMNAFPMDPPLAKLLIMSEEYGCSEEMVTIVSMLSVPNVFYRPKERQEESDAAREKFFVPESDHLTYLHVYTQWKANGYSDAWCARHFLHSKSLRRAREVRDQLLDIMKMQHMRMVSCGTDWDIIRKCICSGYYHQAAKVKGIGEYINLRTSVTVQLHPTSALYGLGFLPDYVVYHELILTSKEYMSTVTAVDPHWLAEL
Assay: X-ray crystallography, […] A, co-crystallization
Assay type: binding
Details: Mg2+ bound; MES pH 6.5; 293 K; tenfold molar excess of ADP; nucleotide site between RecA1 and RecA2

In the case of `Nc1ncnc2c1ncn2[C@@H]1O[C@H](COP(=O)(O)OP(=O)(O)O)[C@@H](O)[C@H]1O` [ADP], the “X-ray crystallography, 1.9 A, co-crystallization” value is reported as “The polder omit map clearly reveals the presence of ADP and a magnesium ion”.
